Assay results reported in publication PMC6421704 (Journal of Experimental & Clinical Cancer Research : CR, 2019).
“Also recorded” adds a separate entry of the source. Like-named read-outs stand apart in the source and are kept apart here.

What was measured:
[1] = test system: HepG2 cell line tumor xenografts; experiment: HepG2 xenograft tumor model in nude mice; assay type: in vivo
Experimental: First, 2 × 10^6 HepG2 cells, 4 × 10^6 MHCC 97H cells, 4 × 10^6MHCC 97 L cells, 2 × 10^6 A549 cells, or 5 × 10^6 SMMC-7721 cells in a volume of 200 μl PBS were inoculated subcutaneously in the right flank of each mouse. Tumor growth was measured using vernier calipers, and tumor volume (mm^3) was calculated as (L × W × H)/2. When the mean tumor volume reached 200 mm^3, the mice were randomized into four groups and treatment was initiated. […] Tumor volume were recorded every 3 days until the study was terminated. The mice were sacrificed after 21 days of treatment.
The inhibition rate was calculated.
The tumor weights were measured, and the inhibition rate was calculated. Data are shown as the mean ± S.D. and are representative of three independent experiments. **p < 0.01, ***p < 0.001

HepG2 cells [2] = experiment: HepG2 cell growth with Crizotinib and GNF-5837; assay type: cell-based; conditions: Homo sapiens, read-out: growth inhibition rate
Experimental: The inhibition rate was calculated (right panel).

TrkB signaling = experiment: BDNF-induced TrkB signaling in HepG2 cells (Western blot); assay type: cell-based, human
Experimental: (§3) Data are shown as the mean ± S.D. and are representative of three independent experiments. ** p < 0.01, *** p < 0.001.
(b) HepG2 cells were treated with BDNF (10 ng/ml) alone or BDNF (10 ng/ml) and HGF (10 ng/ml) for the indicated time and the activation of TrkB signaling pathway was examined. […] The activation of the TrkB and c-Met signaling pathways were examined. […] The activation of the TrkB and c-Met signaling pathways were examined. […] Data are shown as the mean ± S.D. and are representative of three independent experiments. **p < 0.01, ***p < 0.001
(§4) For western blots, cells were lysed with M-PER? Mammalian Protein Extraction Reagent (Pierce, Rockford, IL, USA). Then, western blot analysis was performed according to standard procedures. Chemiluminescent detection was conducted using supersignal substrate (Pierce) according to the manufacturer’s specifications.

c-Met signaling pathway = experiment: HGF-induced c-Met signaling pathway activation in HepG2 cells (Western blot)
Experimental: (a) HepG2 cells were treated with HGF (10 ng/ml) alone or HGF (10 ng/ml) and BDNF (10 ng/ml) for the indicated time and the activation of c-Met signaling pathway was examined.
as §4

PDGFRα = PDGFRα (Homo sapiens, UniProt P16234); experiment: In vitro kinase activity assay (HDB Kinase Selectivity Profiling); assay type: biochemical; conditions: Kinase Glo Plus assay format
Sequence of PDGFRα (P16234 24-1089): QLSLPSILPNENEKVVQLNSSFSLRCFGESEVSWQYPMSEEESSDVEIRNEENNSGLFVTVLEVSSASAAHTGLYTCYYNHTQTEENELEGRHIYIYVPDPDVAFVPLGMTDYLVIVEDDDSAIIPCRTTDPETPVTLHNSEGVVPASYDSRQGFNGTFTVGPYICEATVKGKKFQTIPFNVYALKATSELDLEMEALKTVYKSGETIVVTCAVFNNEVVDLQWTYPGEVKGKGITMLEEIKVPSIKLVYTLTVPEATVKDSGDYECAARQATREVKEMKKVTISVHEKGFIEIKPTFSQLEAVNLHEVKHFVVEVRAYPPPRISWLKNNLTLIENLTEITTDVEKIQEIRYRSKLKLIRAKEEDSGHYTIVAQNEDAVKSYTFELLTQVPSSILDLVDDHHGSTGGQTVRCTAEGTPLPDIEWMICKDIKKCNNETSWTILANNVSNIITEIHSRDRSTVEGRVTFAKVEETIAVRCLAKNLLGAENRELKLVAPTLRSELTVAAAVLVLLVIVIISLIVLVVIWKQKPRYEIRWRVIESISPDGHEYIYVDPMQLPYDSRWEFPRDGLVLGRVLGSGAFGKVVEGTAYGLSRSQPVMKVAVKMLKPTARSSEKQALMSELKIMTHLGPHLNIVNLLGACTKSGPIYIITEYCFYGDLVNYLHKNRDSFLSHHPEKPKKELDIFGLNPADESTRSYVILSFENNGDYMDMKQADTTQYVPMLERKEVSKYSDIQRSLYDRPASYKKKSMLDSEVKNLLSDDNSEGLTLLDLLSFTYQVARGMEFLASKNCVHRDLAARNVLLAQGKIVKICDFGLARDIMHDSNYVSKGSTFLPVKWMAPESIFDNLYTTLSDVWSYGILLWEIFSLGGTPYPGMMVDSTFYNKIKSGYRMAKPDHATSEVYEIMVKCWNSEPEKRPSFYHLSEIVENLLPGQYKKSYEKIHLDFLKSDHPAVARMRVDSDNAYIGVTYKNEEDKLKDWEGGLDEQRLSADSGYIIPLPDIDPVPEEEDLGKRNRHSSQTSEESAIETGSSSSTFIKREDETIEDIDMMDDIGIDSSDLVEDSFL

FGFR1 = FGFR1 (Homo sapiens, UniProt P11362); experiment: as above; assay type: biochemical; conditions: Kinase Glo Plus assay format
Sequence of FGFR1 (P11362 22-822): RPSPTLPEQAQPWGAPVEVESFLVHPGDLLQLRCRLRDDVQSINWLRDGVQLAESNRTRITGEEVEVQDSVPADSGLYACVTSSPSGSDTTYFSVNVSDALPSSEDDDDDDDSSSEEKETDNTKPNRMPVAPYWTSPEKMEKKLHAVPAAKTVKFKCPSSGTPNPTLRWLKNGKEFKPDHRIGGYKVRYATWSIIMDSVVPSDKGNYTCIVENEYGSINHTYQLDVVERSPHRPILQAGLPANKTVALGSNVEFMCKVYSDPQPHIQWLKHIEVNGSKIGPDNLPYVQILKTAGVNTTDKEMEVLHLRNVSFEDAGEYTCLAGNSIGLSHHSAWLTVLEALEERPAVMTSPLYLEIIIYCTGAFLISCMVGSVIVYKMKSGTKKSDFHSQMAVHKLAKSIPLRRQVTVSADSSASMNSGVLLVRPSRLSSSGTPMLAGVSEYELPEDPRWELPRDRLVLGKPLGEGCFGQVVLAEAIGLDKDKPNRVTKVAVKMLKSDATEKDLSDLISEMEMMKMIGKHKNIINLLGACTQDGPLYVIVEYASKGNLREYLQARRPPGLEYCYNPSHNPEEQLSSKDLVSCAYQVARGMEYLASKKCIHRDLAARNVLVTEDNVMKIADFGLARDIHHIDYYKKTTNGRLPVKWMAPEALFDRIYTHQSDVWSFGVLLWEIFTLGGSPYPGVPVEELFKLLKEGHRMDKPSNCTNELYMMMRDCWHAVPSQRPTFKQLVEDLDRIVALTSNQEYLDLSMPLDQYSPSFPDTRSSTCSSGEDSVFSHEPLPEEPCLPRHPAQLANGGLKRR

AXL = AXL (Homo sapiens, UniProt P30530); experiment: as above; assay type: biochemical; conditions: Kinase Glo Plus assay format
FLT1 = FLT1 (Homo sapiens, UniProt P17948); experiment: as above; assay type: biochemical; conditions: Kinase Glo Plus assay format
EPHA1 = EPHA1 (Homo sapiens, UniProt P21709); experiment: as above; assay type: biochemical; conditions: Kinase Glo Plus assay format
IGF1R = IGF1R (Homo sapiens, UniProt P08069); experiment: as above; assay type: biochemical; conditions: Kinase Glo Plus assay format
Sequence of IGF1R (P08069 31-1367): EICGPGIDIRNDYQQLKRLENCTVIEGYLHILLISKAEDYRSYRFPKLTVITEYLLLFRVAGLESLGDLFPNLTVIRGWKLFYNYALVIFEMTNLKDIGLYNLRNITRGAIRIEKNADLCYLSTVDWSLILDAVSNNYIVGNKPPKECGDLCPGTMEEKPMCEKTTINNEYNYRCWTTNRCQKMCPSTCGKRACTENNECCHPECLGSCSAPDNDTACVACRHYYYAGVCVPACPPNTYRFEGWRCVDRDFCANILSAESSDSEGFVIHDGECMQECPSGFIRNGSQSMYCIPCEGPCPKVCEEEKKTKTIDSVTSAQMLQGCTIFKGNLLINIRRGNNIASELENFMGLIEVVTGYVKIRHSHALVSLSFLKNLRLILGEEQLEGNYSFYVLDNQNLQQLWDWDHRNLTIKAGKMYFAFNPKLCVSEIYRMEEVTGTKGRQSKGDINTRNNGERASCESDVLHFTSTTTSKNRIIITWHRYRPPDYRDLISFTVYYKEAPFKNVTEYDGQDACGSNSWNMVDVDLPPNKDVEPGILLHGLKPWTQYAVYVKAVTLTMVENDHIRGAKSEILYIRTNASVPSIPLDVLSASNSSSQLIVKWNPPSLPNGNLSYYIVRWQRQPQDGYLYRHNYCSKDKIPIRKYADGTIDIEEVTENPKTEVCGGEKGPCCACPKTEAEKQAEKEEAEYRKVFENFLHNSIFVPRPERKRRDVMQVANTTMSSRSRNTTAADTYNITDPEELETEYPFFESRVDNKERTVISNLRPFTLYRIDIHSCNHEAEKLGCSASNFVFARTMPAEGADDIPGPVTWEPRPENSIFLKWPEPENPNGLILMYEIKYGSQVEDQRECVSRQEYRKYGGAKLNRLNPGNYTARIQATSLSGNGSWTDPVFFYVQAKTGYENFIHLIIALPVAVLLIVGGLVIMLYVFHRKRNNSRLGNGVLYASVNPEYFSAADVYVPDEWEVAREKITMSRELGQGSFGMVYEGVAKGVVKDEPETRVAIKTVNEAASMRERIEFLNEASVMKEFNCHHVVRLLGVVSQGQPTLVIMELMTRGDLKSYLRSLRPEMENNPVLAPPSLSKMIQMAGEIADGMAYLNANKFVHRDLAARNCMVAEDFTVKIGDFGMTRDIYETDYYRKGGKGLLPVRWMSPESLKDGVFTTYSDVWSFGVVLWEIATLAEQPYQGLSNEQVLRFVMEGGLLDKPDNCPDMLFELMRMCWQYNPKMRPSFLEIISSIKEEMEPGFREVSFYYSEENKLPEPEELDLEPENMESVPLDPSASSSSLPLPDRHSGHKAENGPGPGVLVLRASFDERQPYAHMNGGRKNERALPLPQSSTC

EGFR = EGFR (Homo sapiens, UniProt P00533); experiment: as above; assay type: biochemical; conditions: Kinase Glo Plus assay format
InsR = InsR (Homo sapiens, UniProt P06213); experiment: as above; assay type: biochemical; conditions: Kinase Glo Plus assay format
C-KIT = C-KIT (Homo sapiens, UniProt P10721); experiment: In vitro kinase activity assay (Caliper assay format); assay type: biochemical
C-KIT(v654A) = C-KIT(v654A) (Homo sapiens, UniProt P10721, V654A); experiment: as above; assay type: biochemical
Ephb1 = Ephb1 (Homo sapiens, UniProt P54762); experiment: as above; assay type: biochemical
RET = RET (Homo sapiens, UniProt P07949); experiment: In vitro kinase activity assay (HDB Kinase Selectivity Profiling); assay type: biochemical; conditions: Kinase Glo Plus assay format
Sequence of RET (P07949 29-1114): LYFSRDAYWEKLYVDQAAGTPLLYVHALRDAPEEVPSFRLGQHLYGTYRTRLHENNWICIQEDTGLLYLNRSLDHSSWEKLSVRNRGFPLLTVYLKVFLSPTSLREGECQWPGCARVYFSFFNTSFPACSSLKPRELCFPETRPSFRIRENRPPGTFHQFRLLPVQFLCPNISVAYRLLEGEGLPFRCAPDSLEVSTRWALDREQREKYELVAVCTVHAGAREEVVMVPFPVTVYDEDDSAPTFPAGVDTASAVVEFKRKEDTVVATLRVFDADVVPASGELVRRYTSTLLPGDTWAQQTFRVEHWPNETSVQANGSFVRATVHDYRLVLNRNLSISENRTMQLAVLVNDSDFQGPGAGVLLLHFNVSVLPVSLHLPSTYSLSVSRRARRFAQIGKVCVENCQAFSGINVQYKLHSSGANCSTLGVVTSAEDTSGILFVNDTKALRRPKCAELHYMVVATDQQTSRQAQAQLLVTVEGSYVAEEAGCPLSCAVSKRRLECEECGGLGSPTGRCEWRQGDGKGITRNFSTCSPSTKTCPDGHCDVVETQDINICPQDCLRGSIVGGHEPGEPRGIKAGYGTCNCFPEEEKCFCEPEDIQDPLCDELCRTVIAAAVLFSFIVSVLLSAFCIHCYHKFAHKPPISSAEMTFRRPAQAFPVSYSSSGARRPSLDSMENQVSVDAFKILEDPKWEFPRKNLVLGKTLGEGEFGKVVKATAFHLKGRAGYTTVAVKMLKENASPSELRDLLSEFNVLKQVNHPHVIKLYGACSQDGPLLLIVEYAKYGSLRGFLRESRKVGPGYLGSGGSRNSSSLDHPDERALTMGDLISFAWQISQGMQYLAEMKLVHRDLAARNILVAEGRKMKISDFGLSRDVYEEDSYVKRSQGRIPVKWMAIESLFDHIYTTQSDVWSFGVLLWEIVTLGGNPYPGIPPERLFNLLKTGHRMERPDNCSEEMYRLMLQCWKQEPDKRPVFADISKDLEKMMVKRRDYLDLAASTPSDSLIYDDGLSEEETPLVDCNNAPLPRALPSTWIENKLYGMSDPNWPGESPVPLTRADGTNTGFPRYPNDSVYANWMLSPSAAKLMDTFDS

EGFR(T790,L858R) = EGFR(T790,L858R) (Homo sapiens, UniProt P00533, L858R/T790M); experiment: as above; assay type: biochemical; conditions: Kinase Glo Plus assay format
Sequence of EGFR(T790,L858R) (P00533 669-1210 T790M/L858R limits assumed): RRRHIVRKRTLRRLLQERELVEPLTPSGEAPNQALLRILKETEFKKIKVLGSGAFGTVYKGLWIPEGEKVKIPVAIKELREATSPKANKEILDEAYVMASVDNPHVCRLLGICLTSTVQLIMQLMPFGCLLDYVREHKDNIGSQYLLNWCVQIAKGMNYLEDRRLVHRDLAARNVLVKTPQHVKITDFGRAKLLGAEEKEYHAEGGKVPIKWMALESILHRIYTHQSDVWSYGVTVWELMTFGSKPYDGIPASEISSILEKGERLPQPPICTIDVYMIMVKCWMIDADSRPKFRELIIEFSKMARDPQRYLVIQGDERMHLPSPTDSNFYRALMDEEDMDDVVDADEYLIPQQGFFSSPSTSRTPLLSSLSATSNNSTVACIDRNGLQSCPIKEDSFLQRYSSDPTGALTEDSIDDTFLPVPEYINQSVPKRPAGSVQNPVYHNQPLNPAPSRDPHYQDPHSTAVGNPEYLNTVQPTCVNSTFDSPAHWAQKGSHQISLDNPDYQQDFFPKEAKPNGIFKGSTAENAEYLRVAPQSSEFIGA

MHCC97H = experiment: cells; conditions: Homo sapiens, 72 h, read-out: IC50 (μM) ± SD
Experimental: (§1) All experiments were conducted three times.

MHCC97L = experiment: cells; conditions: Homo sapiens, 72 h, read-out: IC50 (μM) ± SD
Experimental: as §1

A549 = experiment: Inhibition of cell proliferation (MTS assay); assay type: cell-based; conditions: Homo sapiens, A549, c-Met^hiTrkB^hi, 72 h
Experimental: as §1

BEL-7402 = experiment: Inhibition of cell proliferation (MTS assay); assay type: cell-based; conditions: Homo sapiens, BEL-7402, c-Met^loTrkB^lo, 72 h
Experimental: as §1

HCC-LM3 = experiment: Inhibition of cell proliferation (MTS assay); assay type: cell-based; conditions: Homo sapiens, HCCLM3, HCC-LM3, c-Met^hiTrkB^hi, 72 h
Experimental: as §1

L02 = experiment: Inhibition of cell proliferation (MTS assay); assay type: cell-based; conditions: Homo sapiens, L02, c-Met^hiTrkB^lo (non-cancerous cells), 72 h
Experimental: as §1

MRC-5 = experiment: Inhibition of cell proliferation (MTS assay); assay type: cell-based; conditions: Homo sapiens, MRC5, MRC-5, c-Met^loTrkB^lo (non-cancerous cells), 72 h
Experimental: as §1

NCI-H460 = experiment: Inhibition of cell proliferation (MTS assay); assay type: cell-based; conditions: Homo sapiens, NCI-H460, c-Met^loTrkB^lo, 72 h
Experimental: as §1

SK-N-SH = experiment: Inhibition of cell proliferation (MTS assay); assay type: cell-based; conditions: Homo sapiens, c-Met^loTrkB^hi, 72 h
Experimental: as §1

SMMC-7721 = experiment: Inhibition of cell proliferation (MTS assay); assay type: cell-based; conditions: Homo sapiens, SMMC-7721, c-Met^loTrkB^hi, 72 h
Experimental: as §1

Half-life in plasma = assay type: in vitro ADME; conditions: data not shown
[3] = Body weight in liver orthotopic mouse model; assay type: in vivo, mice
[4] = Body weight in HepG2 xenograft nude mice model; assay type: in vivo; conditions: Indo5 vs control groups
MDCK cells [5] = experiment: MDCK cell proliferation (MTS assay); assay type: cell-based, Canine; conditions: scattering conditions
Experimental: as §1
Figure S1. […] Cell proliferation was anaylzed with MTS assay.

HepG2 cells [6] = experiment: HepG2 cell proliferation under HGF migration conditions (MTS assay); assay type: cell-based, human
Experimental: as §1
Figure S2. […] Cell proliferation was anaylzed with MTS assay.

[7] = test system: HGF-induced vasculature formation; experiment: Matrigel plug assay, HGF-induced angiogenesis in vivo; parameters: species or system BALB/c mice; conditions: Matrigel plug with HGF (50 ng/ml) and Indo5 (10 μM, 20 μM), 7 days
Experimental: After 7 days, mice were sacrificed and the Matrigel plugs were fixed in 10% buffered formaldehyde, which was embedded in paraffin, and sectioned. The sections were stained with hematoxylin and eosin(H&E). H&E staining was performed to identify the formation and infiltration of new, functional microvessles.

[8] = test system: c-Met and TrkB coexpressing cell lines (c-Met^hiTrkB^hi); experiment: Cell growth of c-Met and TrkB coexpressing cell lines; assay type: cell-based; conditions: Homo sapiens, read-out: IC50 value, range over cell lines
[9] = test system: c-Met^loTrkB^hi and c-Met^loTrkB^lo cells; experiment: Cell growth of cells expressing TrkB alone or both low; assay type: cell-based; conditions: Homo sapiens, read-out: IC50 value, range over cell lines
[10] = Cytotoxicity in non-cancerous cells; assay type: cell-based; conditions: human
HCC metastasis in lung = experiment: Lung metastasis in mice bearing MHCC97H orthotopic tumors (H&E); assay type: in vivo; conditions: Indo5 treatment
orthotopic tumors = experiment: Histological examination of liver from mice bearing orthotopic tumors (H&E); assay type: in vivo; conditions: 48 mg/kg Indo5
Excerpt: Figure S8. H&E staining of livers from mice bearing orthotopic tumors treated with the vehicle or Indo5.

[11] = test system: HepG2 cell line tumor xenografts; experiment: TUNEL staining of HepG2 tumor xenografts; assay type: in vivo, nude mice; conditions: HepG2 xenograft, Indo5-treated
SMMC-7721 xenograft = SMMC-7721 xenograft mice; assay type: in vivo
Experimental: (§2) Tumor growth was measured using vernier calipers, and tumor volume (mm^3) was calculated as (L × W × H)/2. When the mean tumor volume reached 200 mm^3, the mice were randomized into four groups and treatment was initiated. Indo5 in DMSO was injected intraperitoneally into the mice once daily at the indicated doses. Tumor volume were recorded every 3 days until the study was terminated. The mice were sacrificed after 21 days of treatment. Solid tumors were excised and weighed, and the inhibition rate was calculated as […].

SK-N-SH xenograft = SK-N-SH xenograft mice; assay type: in vivo
Experimental: as §2

Ba/F3-Tpr-Met cells [12] = experiment: cells; conditions: Mus musculus, read-out: IC50 of IL-3-independent growth
Ba/F3-Tpr-Met cells [13] = conditions: 0.5 μM Indo5
HepG2 cells [14] = experiment: BDNF-induced HepG2 cell migration; conditions: HepG2, BDNF 50 ng/ml, 24 h
Experimental: (§5) For the migration assay, 2×10^5 cells were seeded on 8µm polycarbonate membrane (Transwell; Costar). […] After 24h migration cells were counted.

MDCK cells [15] = experiment: HGF-stimulated MDCK cell scattering; conditions: Indo5 pretreated 2 h, HGF 20 ng/ml 12 h, dose-dependent
Experimental: Cells were plated into 96-well plates (1.5 × 10^3 cells/well) and grown until small colonies appeared. […] After 24h incubation, cells were fixed with 90% methanol for 30min at room temperature and stained by 1% crystal violet. Scattered clones were photographed.

wild-type Ba/F3 cells = experiment: Proliferation of wild-type Ba/F3 cells
HepG2 cells [16] = experiment: HGF-induced HepG2 cell migration (Transwell); conditions: HepG2, HGF 20 ng/ml, 24 h, dose-dependent
Experimental: as §5

Ba/F3-TrkB cells = experiment: BDNF-induced growth of TrkB-transfected Ba/F3 cells; conditions: BDNF 50 ng/ml 48 h, dose-dependent
Experimental: Cell proliferation was measured and the proliferation index was calculated. […] Data are shown as the mean ± S.D. and are representative of three independent experiments. ** p < 0.01, *** p < 0.001.

mouse hepatocytes = experiment: HGF-induced proliferation of mouse hepatocytes (MTS assay)
TrkA signaling = experiment: NGF-induced TrkA signaling in SK-N-SH cells (Western blot); conditions: 1 μM Indo5, pretreated 2 h, NGF 500 ng/ml 5 min
Experimental: as §3, §4

[17] = test system: orthotopic HepG2 cell xenografts; experiment: Orthotopic HepG2 cell xenografts (liver orthotopic mouse model)
[18] = test system: MHCC97H orthotopic tumors
Excerpt: For the orthotopic xenograft mouse model, MHCC97H cells were inoculated subcutaneously in the right flank of each SCID mouse. When the tumor volumes reached approximately 1 cm^3, the mice were sacrificed, and the tumors were isolated and cut into 1 mm^3 pieces. The mice were anesthetized by an intraperitoneal injection of 1% sodium pentobarbital solution. A 1-cm longitudinal skin incision was made on the right upper axillary region of the abdomen of the mouse, the peritoneum was opened and the liver was exposed. The liver was punctured by a needle, and a 1 mm^3 tumor piece was implanted. The liver was put back into the abdominal cavity gently, and the surgical opening was closed using a 5–0 surgical suture.
The tumor weights were measured (b). […] Tumor-bearing mice were sacrificed when they became moribund.

[19] = test system: EGF receptor-mediated signaling pathway; experiment: EGF receptor-mediated signaling pathway in A549 cells (Western blot); conditions: A549, Indo5 pretreated 2 h, 100 ng/ml EGF 5 min
[20] = test system: VEGF receptor-mediated signaling pathway; experiment: VEGF receptor-mediated signaling pathway in A549 cells (Western blot); conditions: A549, Indo5 pretreated 2 h, 100 ng/ml VEGF 5 min
[21] = Crizotinib (16 mg/kg) or GNF-5837 (16 mg/kg) alone or combined, intraperitoneally, 3 weeks

C[C@@H](Oc1cc(-c2cnn(C3CCNCC3)c2)cnc1N)c1c(Cl)ccc(F)c1Cl [Crizotinib]
inhibition rate (tumor weight) [1, 21]: 28%
inhibition at 0.1 µM (HepG2 cells [2]; HepG2, 100 nM Crizotinib, 48 h): 30%
BDNF-induced TrkB signaling pathway activation (TrkB signaling; HepG2, Crizotinib (0.5 μM) pretreated 2 h, BDNF 50 ng/ml): significant attenuation

Cc1ccc(NC(=O)Nc2cc(C(F)(F)F)ccc2F)cc1Nc1ccc2c(c1)NC(=O)/C2=C\c1ccc[nH]1 [GNF-5837]
inhibition rate (tumor weight) [1, 21]: 21%
inhibition at 2 µM (HepG2 cells [2]; HepG2, 2 μM GNF-5837, 48 h): 14%
HGF-induced c-Met signaling pathway activation (c-Met signaling pathway; HepG2, GNF-5837 (4 μM) pretreated 2 h, HGF 20 ng/ml): suppressed

Cc1ccccc1NS(=O)(=O)c1ccc2c(c1)/C(=C/c1nc3ccccc3[nH]1)C(=O)N2 [Indo5, 3-(1H-benzimidazol-2-methylene)-5-(2-methylphenylaminosulfo)-2-indolone]
IC50 (PDGFRα): > 10 µM
IC50 (FGFR1): > 10 µM
IC50 (AXL): > 10 µM
IC50 (FLT1): > 10 µM
IC50 (EPHA1): > 10 µM
IC50 (IGF1R): > 10 µM
IC50 (EGFR): > 10 µM
IC50 (InsR): > 10 µM
IC50 (C-KIT): > 10 µM
IC50 (C-KIT(v654A)): > 10 µM
IC50 (Ephb1): > 10 µM
IC50 (RET): > 10 µM
IC50 (EGFR(T790,L858R)): > 10 µM
IC50 (MHCC97H): 1.11 ± 0.018 µM
IC50 (MHCC97L): 1.28 ± 0.016 µM
IC50 (A549): 1.62 ± 0.008 µM
IC50 (BEL-7402): 5.605 ± 0.017 µM
IC50 (HCC-LM3): 1.873 ± 0.012 µM
IC50 (L02): 32.52 ± 0.075 µM
IC50 (MRC-5): > 100 µM
IC50 (NCI-H460): 9.185 ± 0.035 µM
IC50 (SK-N-SH): 2.982 ± 0.019 µM
IC50 (SMMC-7721): 3.598 ± 0.022 µM
half-life (Half-life in plasma): 5 min
inhibition rate (tumor weight) ([1]; Indo5 16 mg/kg, intraperitoneally once daily, 21 days): 65.2%
body weight change ([3]; liver orthotopic mouse model, Indo5 up to highest dose (48 mg/kg), 48 mg/kg): no obvious weight changes; also recorded: not associated with loss of body weight
mouse body weights [4]: almost unchanged
effect on cell proliferation (MDCK cells [5]): No obvious effect
effect on cell proliferation (HepG2 cells [6]): weak inhibitory effect
HGF-induced vasculature formation in vivo [7]: dramatically blocked
BDNF-induced TrkB signaling (TrkB signaling; HepG2, Indo5 pretreated 2 h, BDNF 50 ng/ml 5 min, dose-dependent): decreased
IC50 [8]: 1.11 to 1.87 µM
IC50 [9]: 2.98 to 9.19 µM
IC50 [10]: > 30 µM
HCC metastasis in lung (HCC metastasis in lung): dramatic decrease
tumor cells in liver tissue (histological examination) (orthotopic tumors): no obvious tumor cells
apoptosis in tumor tissues (TUNEL staining) [11]: increased apoptosis
xenograft tumor growth (SMMC-7721 xenograft): dose-dependent inhibitory effect
xenograft tumor growth (SK-N-SH xenograft): dose-dependent inhibitory effect
IC50 (Ba/F3-Tpr-Met cells [12]): 0.618 µM
cell apoptosis (Ba/F3-Tpr-Met cells [13]): markedly induced cell apoptosis
BDNF-induced cell migration (HepG2 cells [14]): suppressed
HGF-stimulated cell scattering (MDCK cells [15]): blocked
effect on cell proliferation (wild-type Ba/F3 cells): no obvious effect
HGF-induced cell migration (HepG2 cells [16]): significantly suppressed
BDNF-induced growth (Ba/F3-TrkB cells): inhibited
cytotoxicity (mouse hepatocytes; 0.5 μM Indo5, 72 h, data not shown): no cytotoxicity was observed
HGF-induced cell proliferation (mouse hepatocytes; mouse hepatocytes, HGF 20 ng/ml 48 h, MTS): dose-dependently inhibited
NGF-induced TrkA signaling (TrkA signaling): almost completely inhibited
rate of tumor growth inhibition ([17]; orthotopic HepG2, 8 mg/kg intraperitoneally once daily for 3 weeks): approximately 49%
rate of tumor growth inhibition ([17]; orthotopic HepG2, 16 mg/kg intraperitoneally once daily for 3 weeks): 61.2%
overall health of the animals ([17]; orthotopic HepG2 model, Indo5 vs control, data not shown): not adversely affected
survival rate ([18]; 24 mg/kg Indo5 once daily by oral gavage): 40%
overall survival rate ([18]; 48 mg/kg Indo5 once daily by oral gavage): 77.7%
activation of EGF receptor-mediated signaling pathway [19]: no effect
activation of VEGF receptor-mediated signaling pathway [20]: no effect
HGF-induced c-Met signaling pathway activation (c-Met signaling pathway; HepG2, 0.5 μM Indo5, pretreated 2 h, HGF 20 ng/ml 5 min): dramatically suppressed

CNC(=O)c1cc(Oc2ccc(NC(=O)Nc3ccc(Cl)c(C(F)(F)F)c3)cc2)ccn1 [Sorafenib, reference compound]
body weight loss ([3]; sorafenib treatment, mice): up to 10%
survival rate ([18]; 50 mg/kg Sorafenib once daily by oral gavage): 44%
